From US20080194483A1, “GLP-1 (9-36) methods and compositions” (priority 2003, published 2008)
Where no end group is shown, it is not given here.

Assays:
[1] = test system: hepatocytes; type: cell-based
Method: An experiment similar to that described in Example 1 was performed, using hepatocytes rather than endothelial cells.

[2] = test system: endothelial nitric oxide synthase (eNOS); experiment: eNOS activity ([3H]L-arginine to [3H]L-citrulline) in cultured vascular endothelial cells; type: cell-based, bovine; conditions: BAECs
Method: Cell-culture conditions. For measurement of endothelial nitric oxide activity (eNOS), bovine aortic endothelial cells (BAECs, passage 4-10) were plated in 24 well plates at 200,000 cells /well in Eagle's MEM containing 10% FBS, essential and nonessential amino acids, and antibiotics. Cells were incubated with either 5 mM glucose, 30 mM glucose, 30 mM glucose plus 10 nM GLP-1 (7-36), 30 mM glucose plus 10 nM GLP-1 (7-36) plus 10 μM pyrrolidide (a DPP IV inhibitor) (not shown in FIG. 2), 30 mM glucose plus 10 nM GLP-1 (7-36) plus 10 μM pyrrolidide and 100 μM phosphoramidon (a neutral endopeptidase 24.11 inhibitor), 30 mM glucose+GLP-1 (9-36), and 30 mM glucose plus GLP-1 (9-36) plus 10 nM exendin 9-39, a blocker of the GLP-1 (7-36) receptor. The pyrrolidide, phosphoramidon, and exendin 9-39 were each added to the cells four hours before the addition of the peptides. eNOS activity measurements were performed 48 hrs later. Measurement of eNOS activity. eNOS activity in cells was determined by first incubating cells in L-arginine-deficient, serum-free MEM media for 6 hours. […] The eluate was collected in glass scintillation vials for [^3H]L-citrulline quantitation by liquid scintillation spectroscopy.

[3] = test system: human aortic endothelial cells (HAEC); experiment: Nutrient-induced ROS (CM-H2DCFDA) in human aortic endothelial cells; type: cell-based
Method: Cell Culture conditions. Confluent HAECs (passage 1-6) were maintained in EGM2 media containing 0.4% FBS plus growth factor additives. Cells were incubated for varying times with either 5 mM glucose, 12 mM glucose, or 5 mM glucose plus 800 μM oleic acid and 1 mM albumin. In other experiments, cells were incubated with 5 mM glucose, 12 mM glucose, or 5 mM glucose plus 800 μM oleic acid and 1 mM albumin, alone, or with either 100 pM GLP-1 (7-36 NH2), GLP-1 (7-36 NH2)+ the DPPIV inhibitor H-lys(4-nito-Z)-pyrrolidide and the neutral endopeptidase inhibitor phosphoramidon, GLP-1 (9-36 NH2), GLP-1 (9-36 NH2) plus the GLP-1 receptor blocker […], and with GLP-1 (9-36 NH2) with 100× GLP-1 (7-36 NH2) and both DPPIV and NEP inhibitors. Cells were pre incubated for four hrs in cycloheximide (5 ug/ml). In experiments using clotrimazole cells were preincubated for 2.5 hrs in serum free media. Reactive oxygen species quantification. Cells were plated in 96-well cell culture plates. Intracellular reactive oxygen species were detected using the fluorescent probe CM-H2DCFDA (Molecular Probes). Cells were loaded with 10 μM CM-H2DCFDA, incubated for 45 min at 37° C., and analyzed with an HTS 7000 Bio Assay Fluorescent Plate Reader (Perkin Elmer) using the HTSoft program.

[4] = test system: bovine aortic endothelial cells (BAECs); experiment: Hyperglycemia-induced intracellular ROS (CM-H2DCFDA) in cultured vascular endothelial cells; type: cell-based
Method: Cell culture conditions. For reactive oxygen species (RO) measurement, bovine aortic endothelial cells (BAECs, passage 4-10) were plated in 96 well plates at 100,000 cells/well in Eagle's MEM containing 10% FBS, essential and nonessential amino acids, and antibiotics. Cells were incubated with either 5 mM glucose, 30 mM glucose, 30 mM glucose plus 10 nM GLP-1 (7-36), 30 mM glucose plus 10 nM GLP-1 (7-36), 30 mM glucose plus 10 nM GLP-1 (7-36) plus 10 μM pyrrolidide (a DPP IV inhibitor), 30 mM glucose plus 10 nM GLP-1 (7-36) plus 10 μM pyrrolidide and 100 μM phosphoramidon (a neutral endopeptidase 24.11 inhibitor), and 30 mM glucose plus GLP-1 (9-36) plus 10 nM exendin 9-39, a blocker of the GLP-1 (7-36) receptor. The pyrrolidide, phosphoramidon, and exendin 9-39 were each added to the cells four hours before the addition of the peptides. The ROS measurements were performed 24 hrs later.
Intracellular reactive oxygen species measurements. The intracellular formation of reactive oxygen species was detected using the fluorescent probe CM-H2DCFDA (Molecular Probes). Cells (1×10^5 ml^−1) were loaded with 10 μM CM-H2DCFDDA, incubated for 45 min at 37° C., and analysed in an HTS 7000 Bio Assay Fluorescent Plate Reader (Perkin Elmer) using the HTSoft program. ROS production was determined from an H2O2 standard curve (10-200 nmol ml^−1).

[5] = test system: rat hepatocytes; experiment: Gluconeogenesis (glucose production) in isolated rat liver cells; type: cell-based; conditions: liver cells of non-diabetic control strain rats, 1000 pM insulin without GLP-1(9-36), 24 hours
Method: Liver cells were isolated from non-diabetic control strain rats and from SDF rats. Single-cell suspensions of hepatocytes were obtained from perfusions using the procedure of Berry and Friend (1969) and the perfusion mixture of […] et al. (1979). The cells were plated on tissue culture plastic for 6 hours at a density of 2×10^5 cells per well in a 24-well culture plate that was pre-coated with rat-tail collagen I. During plating, cells were cultured in RPMI 1640 medium supplemented with 10% FBS, penicillin/streptomycin, 10 μg/ml insulin and 10 μM dexamethasone. After allowing for adherence, the media was changed to RPMI with 5 mM glucose, 0.4% FCS, and no insulin or dexamethasone. The cells were allowed to equilibrate overnight in this low-glucose media. The following morning this media was refreshed, insulin alone, or insulin and GLP-1(9-36) were added and treatment lasted another 24 hours. After stimulation, glucose production was measured by incubating the cells for 6 hours in glucose-free RPMI containing 5 mM each of alanine, valine, glycine, pyruvate and lactate. Glucose was subsequently measured with a Trinder assay (Sigma). Averages were obtained of 4 independent measurements.

## CC[C@H](C)[C@H](NC(=O)[C@H](Cc1ccccc1)NC(=O)[C@H](CCC(=O)O)NC(=O)[C@H](CCCCN)NC(=O)[C@H](C)NC(=O)[C@H](C)NC(=O)[C@H](CCC(N)=O)NC(=O)CNC(=O)[C@H](CCC(=O)O)NC(=O)[C@H](CC(C)C)NC(=O)[C@H](Cc1ccc(O)cc1)NC(=O)[C@H](CO)NC(=O)[C@H](CO)NC(=O)[C@@H](NC(=O)[C@H](CC(=O)O)NC(=O)[C@H](CO)NC(=O)[C@@H](NC(=O)[C@H](Cc1ccccc1)NC(=O)[C@@H](NC(=O)CNC(=O)[C@@H](N)CCC(=O)O)[C@@H](C)O)[C@@H](C)O)C(C)C)C(=O)N[C@@H](C)C(=O)N[C@@H](Cc1c[nH]c2ccccc12)C(=O)N[C@@H](CC(C)C)C(=O)N[C@H](C(=O)N[C@@H](CCCCN)C(=O)NCC(=O)N[C@@H](CCCNC(=N)N)C(N)=O)C(C)C [GLP-1 (9-36)]
[1]
  hyperglycemia-induced ROS formation in hepatocytes: inhibited

## GLP-1 (7-36) (HAEGTFTSDVSSYLEGQAAKEFIAWLVKGR-NH2; UniProt P01275 98-127, looked up, fragment)
[2]; 30 mM glucose, 10 nM peptide plus 10 μM pyrrolidide and 100 μM phosphoramidon (FIG. 2, bar 4)
  hyperglycemia-induced decrease in eNOS activity when GLP-1 (7-36) degradation is blocked: no effect
[3]; 12 mM glucose, 2 hrs, with protease inhibitors
  high glucose-induced ROS in the presence of DPP-4 and neutral endopeptidase 24.11 inhibitors: no effect
[3]; GLP-1 (9-36 NH2) with 100× GLP-1 (7-36 NH2) and both DPPIV and NEP inhibitors
  effect of 100-fold excess bioactive GLP-1 on ability of GLP-1 [9-36amide] to prevent nutrient-induced ROS: did not affect
[4]; 30 mM glucose, 10 nM peptide plus 10 μM pyrrolidide (DPP IV inhibitor) with or without 100 μM phosphoramidon (FIG. 1, bars 4 and 5)
  hyperglycemia-induced ROS production when GLP-1 degradation is blocked: no effect
[4]; 30 mM glucose, peptide alone, ROS measured 24 hrs later (FIG. 1)
  hyperglycemia-induced ROS production: completely prevents

## exendin 9-39 [e9-39]
[2]; 30 mM glucose plus GLP-1 (9-36) plus 10 nM exendin 9-39 (FIG. 2, bar 6)
  effect of GLP-1 receptor blockade on GLP-1 (9-36) protection of eNOS activity: no effect
[3]; 12 mM glucose, GLP-1 (9-36 NH2) plus receptor blocker
  effect of GLP-1R antagonist on ability of GLP-1 degradation products to prevent glucose-induced ROS: no effect
[4]; 30 mM glucose plus GLP-1 (9-36) plus 10 nM exendin 9-39
  effect of GLP-1 receptor blockade on inhibition of hyperglycemia-induced ROS by GLP-1 (9-36): no effect

## insulin
[5]
  gluconeogenesis, % of control levels: 46 % of control levels
